Source: patent publication US4734411A, “Pyrrolizidine compounds, salts thereof, process for the preparation of same and pharmaceutical agents comprising same” (Sanwa Kagaku Kenkyusho Co., Ltd., priority 1985, dated 1988)
Where two headings read alike, the source gives them in different places.

Key:
[1] = system: pupil diameter; experiment: Influence on pupil diameter of mice (mydriatic effect); type: in vivo, ICR mice, male; settings: oral, 30 minutes
Description: (Influence on pupil diameter of mice)
Some pyrrolizidine compounds according to the invention were tested to evaluate their influence on the pupil diameter of mice, in comparison with Pirenzepine and Atropine as controls.
The animals were deprived of food for 18 hours prior to the test. After 30 minutes from oral administration of the compounds, the pupil width was measured by a micrometer. Results are shown in following Table 3 in terms of ratio of pupil diameter and mydriatic effect.

[2] = system: aspirin induced gastric ulcer; experiment: Aspirin ulcer in rats (pylorus ligated); type: in vivo, Sprague-Dawley rats, male; settings: for Inhibition (%): an hour before pylorus ligation and aspirin (100 mg/kg); for ED50: Rattus norvegicus
Description: Some pyrrolizidine compounds according to the invention were tested to evaluate their anti-ulcer activity on Aspirin ulcer, in comparison with Pirenzepine and Cimetidine as controls, in accordance with the procedure proposed by Okabe et al. ["Japan. J. Pharmacol." Vol. 24, page 363 (1974)].
Sprague-Dawley rats of male sex were used, each having the body weight of 146 to 210 g. The animals were deprived of food for 24 hours prior to the test. After an hour from oral administration of the compounds, the pylorus was ligated under anesthesia by ethyl ether and aspirin (100 mg/kg) suspended with 5% gum arabic was orally administered. After 7 hours from the administration, the stomach was isolated and inflated with 10 ml of 1% formalin. The ulcer index was determined as the sum of the length (mm) of each erosion per rat.
Results are shown in following Table 2 in terms of percent inhibition of anti-ulcer activity with respect to concentrations of 10 to 100 mg/kg.

[3] = in words, related arts; cited from earlier work
[4] = system: stress induced gastric ulcer; experiment: Stress ulcer in rats (restraint and water immersion); type: in vivo, Wistar rats, male; settings: for Inhibition (%): an hour before the restraint; for ED50: Rattus norvegicus
Description: Some pyrrolizidine compounds according to the invention were tested to evaluate their anti-ulcer activity in comparison with Pirenzepine and Cimetidine as controls, in accordance with the procedure proposed by Takagi et al.["Japan. J. Pharmacol." Vol. 18, page 9 (1968)].
Wistar rats of male sex were used, each having the body weight of 138 to 207 g. The animals were deprived of food for 24 hours prior to the test. They were immobilized in a restraint cage and immersed for 7 hours to the height of the xiphoid in a water bath kept at 23±1° C. After inflation with 10 ml of 1% formalin, the isolated stomach was opened along the greater curvature. The ulcer index was determined as the sum of the length (mm) of each erosion per rat. The compounds were administered orally an hour before the restraint.

[5] = Acute toxicity in mice; type: in vivo; settings: mouse, in vivo; oral, 7 days, 5 animals, Litchfield-Wilcoxon's method
Description: (§1) Some pyrrolizidine compounds according to the invention were tested to evaluate their acute toxicity in mice.
(§2) ICR mice of male sex were used, each having the body weight of 24.8 to 30.0 g. The compounds were orally administered and general condition, behavior and mortality were observed daily throughout the experimental period of time (7 days). At end of the period, the surviving animals were sacrificed. Dead animals were sacrificed at the time when they were recognized to be dead. LD50 value was calculated in accordance with Litchfield-Wilcoxon's method.

[6] = system: ICR mice; experiment: Acute toxicity in mice; type: in vivo; settings: oral, 7 days, of 5 animals; numeral in parenthesis
Description: as §1, §2

[7] = oral, concentration of inhibitor which gives 50% inhibition, read-out: ED50
[8] = 30 mg/kg, Atropine (1 mg/kg) = 1.00

Row | SMILES | Rate of pupil dia. (pre. = 1) ([1]; 1 mg/kg) | Ratio of mydriasis ([1]; 1 mg/kg) | Inhibition (%) ([2]; 10 mg/kg, oral) | Inhibition (%) ([2]; 100 mg/kg, oral) | ED50 ([2]; po) [mg/kg] | side effects [3] | Inhibition (%) ([4]; 10 mg/kg, oral) | Inhibition (%) ([4]; 100 mg/kg, oral) | ED50 ([4]; po) [mg/kg] | ED50 [2, 7] [mg/kg] | ED50 [4, 7] [mg/kg] | LD50 at 168 h [5] [mg/kg] | Rate of pupil dia. (pre. = 1) ([1]; 30 mg/kg) | Ratio of mydriasis [1, 8] | number of dead animals [6]
1 | CN1[C@@H]2CC[C@H]1C[C@@H](OC(=O)C(CO)c1ccccc1)C2 (stereo partly drawn) [Atropine, reference compound] | 4.7 | 1.00 | – | – | – | – | – | – | – | – | – | – | – | – | –
2 | CN/C(=N/CCSCc1nc[nH]c1C)NC#N [Cimetidine, reference compound] | – | – | 12.2 | 69.6 | 50.4 | side effects of forming a perforation in ulcer and strengthening a delayed hypersensitive reaction | 16.9 | 81.5 | 33.8 | – | – | – | – | – | –
3 | c1ccc2c(c1)Sc1ccccc1N2CC12CCCN1CCC2 [Example 1, 10-(7a-Pyrrolizidinylmethyl)phenothiazine] | – | – | 58.3 | 63.5 | – | – | 55.4 | 92.5 | – | < 10 | < 10 | > 1000 | 2.7 | 0.57 | –
4 | c1ccc2c(c1)Sc1ccccc1N2CCC12CCCN1CCC2 [Example 2, 10-[2-(7a-Pyrrolizidinyl)ethyl)phenothiazine] | – | – | 53.3 | 73.2 | – | – | 38.6 | 87.0 | – | < 10 | 16.4 | < 1000 | 4.6 | 0.98 | 4
5 | CN(C)S(=O)(=O)c1ccc2c(c1)N(CC13CCCN1CCC3)c1ccccc1S2 [Example 3, 2-(N,N-Dimethylsulfamoyl)-10-(7a-pyrrolizidinylmethyl)phenothiazine] | – | – | 19.7 | 36.5 | – | – | 49.4 | 65.6 | – | > 100 | 11.8 | > 1000 | 1.1 | 0.23 | –
6 | C[Si](C)(C)c1cccc2c1N(CC13CCCN1CCC3)c1ccccc1S2 [Example 4, 10-(7a-Pyrrolizidinylmethyl)-1-trimethylsilylphenothiazine] | – | – | 17.7 | 65.6 | 60.4 | – | – | – | – | – | – | > 1000 | – | – | –
7 | O=C1Nc2cccnc2N(C(=O)C23CCCN2CCC3)c2ccccc21 [Example 5, 5,11-Dihydro-11-(pyrrolizidine-7a-carbonyl)-6H-pyrido(2,3-b)(1,4)-benzodiazepin-6-one] | – | – | 23.6 | 82.2 | – | – | 31.7 | 80.2 | – | 27.9 | 23.6 | > 1000 | 0.9 | 0.19 | 1
8 | CN1CCN(CC(=O)N2c3ccccc3C(=O)Nc3cccnc32)CC1 [Pirenzepine, reference compound] | – | – | 22.1 | 90.5 | – | side reactions due to supression of muscarinic receptor, although those are somewhat weak | 7.2 | 98.8 | – | 23.7 | 26.3 | – | 3.4 | 0.72 | –
